These results are taken from the SangsterLogP compilation.

One data set in a line: method code SF, from PMID: 1610484.
Settings: not given
By logP is commonly meant the decadic logarithm of the partition coefficient of the neutral form, usually between octanol and water. For `COCCNC(=O)CCn1cnc([N+](=O)[O-])n1`, the lipophilicity (logP) is -0.65.
In turn, `O=C(Cn1cnc([N+](=O)[O-])n1)NCCO` returned a log partition coefficient (logP) of -1.37.
Same read-out and setting: next, `O=C(NCCCO)C(F)(F)Cn1cnc([N+](=O)[O-])n1`: -0.63.
For `COCCNC(=S)Cn1cnc([N+](=O)[O-])n1`, the lipophilicity (logP) was 0.25.
Compound `COCCNC(=O)C(F)(F)Cn1cnc([N+](=O)[O-])n1` came in with a logP of -0.29.
Still for that read-out and setting: next, `CSCCNC(=O)C(F)(F)Cn1cnc([N+](=O)[O-])n1`: 0.4; `COCCCNC(=S)Cn1cnc([N+](=O)[O-])n1`: 0.63; `CSCCNC(=O)Cn1cnc([N+](=O)[O-])n1`: -0.1.
`CSCCCNC(=O)Cn1cnc([N+](=O)[O-])n1`: the logP amounted to 0.26.
`CSCCNC(=O)CCn1cnc([N+](=O)[O-])n1` returned a logP of -0.07.
In the case of `CSCCCNC(=O)C(F)(F)Cn1cnc([N+](=O)[O-])n1`, the logP was 0.76.
The compound `COCCCNC(=O)C(F)(F)Cn1cnc([N+](=O)[O-])n1` showed a logP of 0.01.

Still in this data set, the particulars now being: pH 7.4.
As a reminder, the logD is the decadic logarithm of the distribution of all forms, ionised or not, between an organic phase and buffer at a given pH. Read a low logD as a more hydrophilic compound. Consider `COCCCNC(=O)Cn1cnc([N+](=O)[O-])n1`, for which the logD was -0.51.
Same read-out and setting: the figure for `COCCNC(=O)Cn1cnc([N+](=O)[O-])n1` is -0.77.
